Assay results as given in US20230150974A1 (Foghorn Therapeutics Inc., priority 2020, published 2023).

How the values were obtained:
HiBit-BRG1 = biological target: T1, HiBit-BRG1 (Homo sapiens, UniProt P51532); assay: HiBit-BRG1 cell-based degradation assay (Nano-Glo HiBiT Lytic Detection); settings: HeLa cells expressing HiBit-BRG1 and LgBit, 24 h; for DC50: read-out: BRG1 HiBit Degradation IC50; for Dmax: read-out: BRG1 HiBit Degradation Maximum (%)
T1 construct: expressed in transfected cells
T1 sequence (P51532 whole entry): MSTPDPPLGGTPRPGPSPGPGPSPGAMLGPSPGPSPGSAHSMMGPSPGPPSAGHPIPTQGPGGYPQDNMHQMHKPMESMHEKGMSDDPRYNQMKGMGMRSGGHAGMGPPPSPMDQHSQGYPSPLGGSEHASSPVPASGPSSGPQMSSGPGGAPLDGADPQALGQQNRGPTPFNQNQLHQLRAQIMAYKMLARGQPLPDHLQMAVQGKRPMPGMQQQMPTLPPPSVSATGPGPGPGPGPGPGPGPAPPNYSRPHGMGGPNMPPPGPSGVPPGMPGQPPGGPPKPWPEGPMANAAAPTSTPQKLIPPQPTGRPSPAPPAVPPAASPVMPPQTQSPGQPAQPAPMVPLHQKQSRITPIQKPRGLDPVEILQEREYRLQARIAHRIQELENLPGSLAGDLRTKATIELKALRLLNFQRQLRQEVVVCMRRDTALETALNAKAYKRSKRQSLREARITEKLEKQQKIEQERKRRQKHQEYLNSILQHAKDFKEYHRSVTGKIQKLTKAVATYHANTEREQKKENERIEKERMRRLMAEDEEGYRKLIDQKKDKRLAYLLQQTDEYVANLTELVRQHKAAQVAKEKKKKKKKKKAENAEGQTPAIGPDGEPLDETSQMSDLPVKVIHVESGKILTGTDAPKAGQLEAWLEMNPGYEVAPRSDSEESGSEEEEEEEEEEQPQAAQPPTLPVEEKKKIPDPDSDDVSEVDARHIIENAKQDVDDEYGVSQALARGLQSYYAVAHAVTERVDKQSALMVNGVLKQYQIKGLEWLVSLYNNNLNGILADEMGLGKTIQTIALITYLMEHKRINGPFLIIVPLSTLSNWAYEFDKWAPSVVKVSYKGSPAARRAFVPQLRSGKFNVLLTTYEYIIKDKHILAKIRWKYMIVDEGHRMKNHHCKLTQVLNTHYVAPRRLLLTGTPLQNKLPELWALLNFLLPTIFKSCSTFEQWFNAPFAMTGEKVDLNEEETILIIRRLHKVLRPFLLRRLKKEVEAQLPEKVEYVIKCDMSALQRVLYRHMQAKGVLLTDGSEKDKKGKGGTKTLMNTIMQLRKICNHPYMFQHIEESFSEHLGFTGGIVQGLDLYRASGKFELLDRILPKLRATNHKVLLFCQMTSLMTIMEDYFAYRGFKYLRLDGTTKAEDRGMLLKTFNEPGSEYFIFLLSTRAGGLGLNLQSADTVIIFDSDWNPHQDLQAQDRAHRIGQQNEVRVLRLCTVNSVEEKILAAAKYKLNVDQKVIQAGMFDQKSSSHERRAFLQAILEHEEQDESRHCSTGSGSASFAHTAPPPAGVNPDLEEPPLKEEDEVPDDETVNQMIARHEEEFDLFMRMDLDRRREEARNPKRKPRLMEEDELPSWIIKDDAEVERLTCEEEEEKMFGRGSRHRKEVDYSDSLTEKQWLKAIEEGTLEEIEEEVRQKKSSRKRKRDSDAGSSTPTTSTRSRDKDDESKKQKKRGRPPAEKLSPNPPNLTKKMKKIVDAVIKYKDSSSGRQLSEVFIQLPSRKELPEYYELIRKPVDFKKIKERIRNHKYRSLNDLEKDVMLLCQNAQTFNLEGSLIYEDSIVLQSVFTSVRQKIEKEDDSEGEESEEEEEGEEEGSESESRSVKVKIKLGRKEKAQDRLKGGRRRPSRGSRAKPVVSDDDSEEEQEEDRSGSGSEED
In short: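 HeLa cells stably expressing HiBit-BRG1 plus LgBit; compound exposure 24 h; Nano-Glo HiBiT lytic luminescence; % degradation vs DMSO (0%) and 2 μM standard BRM/BRG1 degrader (100%).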

HiBiT-BRM = biological target: T2, HiBiT-BRM (Homo sapiens, UniProt P51531); assay: HiBiT-BRM cell-based degradation assay (Nano-Glo HiBiT Lytic Detection); settings: HeLa cells expressing HiBiT-BRM, 24 h; for DC50: read-out: BRM HiBit Degradation IC50
T2 construct: expressed in transfected cells
T2 sequence (P51531 whole entry): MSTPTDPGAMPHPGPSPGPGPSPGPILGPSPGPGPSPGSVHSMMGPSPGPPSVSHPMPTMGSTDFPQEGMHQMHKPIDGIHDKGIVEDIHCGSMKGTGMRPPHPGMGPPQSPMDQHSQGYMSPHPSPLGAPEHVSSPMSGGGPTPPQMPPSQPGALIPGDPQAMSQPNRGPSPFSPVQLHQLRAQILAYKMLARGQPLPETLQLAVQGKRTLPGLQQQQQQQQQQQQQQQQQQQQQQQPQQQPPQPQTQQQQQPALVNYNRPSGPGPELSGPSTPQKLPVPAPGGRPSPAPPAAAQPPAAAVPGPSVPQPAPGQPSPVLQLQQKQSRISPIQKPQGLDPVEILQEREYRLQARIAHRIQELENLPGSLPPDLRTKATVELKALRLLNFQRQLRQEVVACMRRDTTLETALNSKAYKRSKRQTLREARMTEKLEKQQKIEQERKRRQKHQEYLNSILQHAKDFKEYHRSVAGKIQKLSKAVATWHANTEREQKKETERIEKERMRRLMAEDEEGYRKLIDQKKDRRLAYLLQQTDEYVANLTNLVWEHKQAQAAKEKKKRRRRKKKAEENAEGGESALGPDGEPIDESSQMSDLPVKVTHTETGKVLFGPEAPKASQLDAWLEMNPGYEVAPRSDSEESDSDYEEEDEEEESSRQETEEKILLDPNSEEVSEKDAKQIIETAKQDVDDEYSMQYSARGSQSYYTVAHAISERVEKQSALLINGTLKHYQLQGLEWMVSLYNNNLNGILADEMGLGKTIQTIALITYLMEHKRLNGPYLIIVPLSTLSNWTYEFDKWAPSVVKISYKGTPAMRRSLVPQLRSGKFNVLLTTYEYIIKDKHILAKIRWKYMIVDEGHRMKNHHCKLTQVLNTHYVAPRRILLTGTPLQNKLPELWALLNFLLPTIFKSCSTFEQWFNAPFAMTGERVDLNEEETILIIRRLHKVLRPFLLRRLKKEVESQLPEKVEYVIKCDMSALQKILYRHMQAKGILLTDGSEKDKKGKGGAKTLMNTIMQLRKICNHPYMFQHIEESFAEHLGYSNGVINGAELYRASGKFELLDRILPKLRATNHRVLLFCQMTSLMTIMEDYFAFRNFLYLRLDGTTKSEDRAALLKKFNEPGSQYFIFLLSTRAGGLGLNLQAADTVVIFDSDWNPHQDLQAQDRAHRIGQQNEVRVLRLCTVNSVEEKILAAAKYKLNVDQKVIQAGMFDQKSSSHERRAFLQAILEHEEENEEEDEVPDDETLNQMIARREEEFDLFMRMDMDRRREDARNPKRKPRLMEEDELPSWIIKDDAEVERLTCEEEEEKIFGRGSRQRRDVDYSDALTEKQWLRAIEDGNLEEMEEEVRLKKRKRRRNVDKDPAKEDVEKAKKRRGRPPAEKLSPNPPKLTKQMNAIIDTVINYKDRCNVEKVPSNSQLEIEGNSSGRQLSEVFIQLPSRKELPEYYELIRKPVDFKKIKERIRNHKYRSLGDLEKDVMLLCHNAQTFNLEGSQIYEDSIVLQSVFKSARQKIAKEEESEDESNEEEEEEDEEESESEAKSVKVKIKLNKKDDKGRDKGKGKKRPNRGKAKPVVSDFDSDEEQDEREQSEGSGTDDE
In short: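 Luminescence from HiBiT–LgBiT complementation in lysates of a stable HiBiT-BRM HeLa line measured after 24 h compound exposure. Degradation expressed as percent relative to DMSO-treated cells and cells given 2 μM of a known BRM/BRG1 degrader.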

SMILES | DC50 (HiBit-BRG1) [nM] | Dmax (HiBit-BRG1) [%] | BRM HiBit Degradation Maximum (%) (HiBiT-BRM) | DC50 (HiBiT-BRM) [nM]
Cc1ncsc1-c1ccc(CNC(=O)[C@@H]2C[C@@H](O)CN2C(=O)[C@@H](NC(=O)CN2CCN(CCOc3cc(N4[C@@H]5CC[C@H]4CN(c4cc(-c6ccccc6O)nnc4N)C5)ccn3)CC2)C(C)(C)C)cc1 [Compound 233, (2S,4R)-1-((2S)-2-(2-(4-(2-((4-(3-(3-amino-6-(2-hydroxyphenyl)pyridazin-4-yl)-3,8-diazabicyclo[3.2.1]octan-8-yl)pyridin-2-yl)oxy)ethyl)piperazin-1-yl)acetamido)-3,3-dimethylbutanoyl)-4-hydroxy-N-(4-(4-methylthiazol-5-yl)benzyl)pyrrolidine-2-carboxamide] | > 100 | > 75 | A (“A” indicates maximum degradation ≥75%) | > 10
Cc1ncsc1-c1ccc(CNC(=O)[C@@H]2C[C@@H](O)CN2C(=O)[C@@H](NC(=O)CCCCN2CCN(CCOc3cc(N4[C@@H]5CC[C@H]4CN(c4cc(-c6ccccc6O)nnc4N)C5)ccn3)CC2)C(C)(C)C)cc1 [Compound 234, (2S,4R)-1-((2S)-2-(5-(4-(2-((4-(3-(3-amino-6-(2-hydroxyphenyl)pyridazin-4-yl)-3,8-diazabicyclo[3.2.1]octan-8-yl)pyridin-2-yl)oxy)ethyl)piperazin-1-yl)pentanamido)-3,3-dimethylbutanoyl)-4-hydroxy-N-(4-(4-methylthiazol-5-yl)benzyl)pyrrolidine-2-carboxamide] | > 1000 | < 50 | A (“A” indicates maximum degradation ≥75%) | > 100
Cc1ncsc1-c1ccc(CNC(=O)[C@@H]2C[C@@H](O)CN2C(=O)[C@@H](NC(=O)CCN2C[C@H]3CN(CCC(=O)NCc4ccc(CCOc5cc(-c6ccccc6O)nnc5N)cc4)C[C@H]3C2)C(C)(C)C)cc1 [Compound 235, (2S,4R)-1-((2S)-2-(3-(5-(3-((4-(2-((3-amino-6-(2-hydroxyphenyl)pyridazin-4-yl)oxy)ethyl)benzyl)amino)-3-oxopropyl)hexahydropyrrolo[3,4-c]pyrrol-2(1H)-yl)propanamido)-3,3-dimethylbutanoyl)-4-hydroxy-N-(4-(4-methylthiazol-5-yl)benzyl)pyrrolidine-2-carboxamide] | > 1000 | < 50 | C (“C” indicates maximum degradation <50%) | > 1000
Cc1ncsc1-c1ccc(CNC(=O)[C@@H]2C[C@@H](O)CN2C(=O)[C@@H](NC(=O)CCN2CCC(OC3CCN(CCC(=O)NCc4ccc(CCOc5cc(-c6ccccc6O)nnc5N)cc4)CC3)CC2)C(C)(C)C)cc1 [Compound 236, (2S,4R)-1-((S)-2-(3-(4-((1-(3-((4-(2-((3-amino-6-(2-hydroxyphenyl)pyridazin-4-yl)oxy)ethyl)benzyl)amino)-3-oxopropyl)piperidin-4-yl)oxy)piperidin-1-yl)propanamido)-3,3-dimethylbutanoyl)-4-hydroxy-N-(4-(4-methylthiazol-5-yl)benzyl)pyrrolidine-2-carboxamide] | > 1000 | < 50 | B (“B” indicates maximum degradation ≥50%) | > 1000
Cc1ncsc1-c1ccc([C@H](C)NC(=O)[C@@H]2C[C@@H](O)CN2C(=O)[C@@H](c2cc(OCCN3CC(OC4CCN(C(=O)c5ccc(CCOc6cc(-c7ccccc7O)nnc6N)cc5)CC4)C3)no2)C(C)C)cc1 [Compound 237, (2S,4R)-1-((R)-2-(3-(2-(3-((1-(4-(2-((3-amino-6-(2-hydroxyphenyl)pyridazin-4-yl)oxy)ethyl)benzoyl)piperidin-4-yl)oxy)azetidin-1-yl)ethoxy)isoxazol-5-yl)-3-methylbutanoyl)-4-hydroxy-N-((S)-1-(4-(4-methylthiazol-5-yl)phenyl)ethyl)pyrrolidine-2-carboxamide] | > 100 | > 50 | A (“A” indicates maximum degradation ≥75%) | > 10
Cc1ncsc1-c1ccc(CNC(=O)[C@@H]2C[C@@H](O)CN2C(=O)[C@@H](NC(=O)CCN2CC(OC3CCN(C(=O)c4ccc(CCOc5cc(-c6ccccc6O)nnc5N)cc4)CC3)C2)C(C)(C)C)cc1 [Compound 238, (2S,4R)-1-((S)-2-(3-(3-((1-(4-(2-((3-amino-6-(2-hydroxyphenyl)pyridazin-4-yl)oxy)ethyl)benzoyl)piperidin-4-yl)oxy)azetidin-1-yl)propanamido)-3,3-dimethylbutanoyl)-4-hydroxy-N-(4-(4-methylthiazol-5-yl)benzyl)pyrrolidine-2-carboxamide] | > 1000 | < 50 | C (“C” indicates maximum degradation <50%) | > 1000
Cc1ncsc1-c1ccc([C@H](C)NC(=O)[C@@H]2C[C@@H](O)CN2C(=O)[C@@H](c2cc(OCCNCCCCCCCCC(=O)NCc3ccc(CCOc4cc(-c5ccccc5O)nnc4N)cc3)no2)C(C)C)cc1 [Compound 239, (2S,4R)-1-((R)-2-(3-(2-((9-((4-(2-((3-amino-6-(2-hydroxyphenyl)pyridazin-4-yl)oxy)ethyl)benzyl)amino)-9-oxononyl)amino)ethoxy)isoxazol-5-yl)-3-methylbutanoyl)-4-hydroxy-N-((S)-1-(4-(4-methylthiazol-5-yl)phenyl)ethyl)pyrrolidine-2-carboxamide] | > 1000 | < 50 | A (“A” indicates maximum degradation ≥75%) | > 100
Cc1ncsc1-c1ccc([C@H](C)NC(=O)[C@@H]2C[C@@H](O)CN2C(=O)[C@@H](c2cc(OCCN3CC4CN(C(=O)c5ccc(CCOc6cc(-c7ccccc7O)nnc6N)cc5)C4C3)no2)C(C)C)cc1 (stereo partly drawn) [Compound 240, (2S,4R)-1-((2R)-2-(3-(2-(6-(4-(2-((3-amino-6-(2-hydroxyphenyl)pyridazin-4-yl)oxy)ethyl)benzoyl)-3,6-diazabicyclo[3.2.0]heptan-3-yl)ethoxy)isoxazol-5-yl)-3-methylbutanoyl)-4-hydroxy-N-((S)-1-(4-(4-methylthiazol-5-yl)phenyl)ethyl)pyrrolidine-2-carboxamide] | > 100 | > 75 | A (“A” indicates maximum degradation ≥75%) | > 100
Cc1ncsc1-c1ccc(CNC(=O)[C@@H]2C[C@@H](O)CN2C(=O)[C@@H](NC(=O)CCN2CC3CN(C(=O)c4ccc(CCOc5cc(-c6ccccc6O)nnc5N)cc4)C3C2)C(C)(C)C)cc1 (stereo partly drawn) [Compound 241, (2S,4R)-1-((2S)-2-(3-(6-(4-(2-((3-amino-6-(2-hydroxyphenyl)pyridazin-4-yl)oxy)ethyl)benzoyl)-3,6-diazabicyclo[3.2.0]heptan-3-yl)propanamido)-3,3-dimethylbutanoyl)-4-hydroxy-N-(4-(4-methylthiazol-5-yl)benzyl)pyrrolidine-2-carboxamide] | > 1000 | < 50 | C (“C” indicates maximum degradation <50%) | > 1000
